Assay results published in ChEMBL document CHEMBL1201862, “PubChem BioAssay data set” (2004).
Activity calls are given as the source filed them.

Assays:
Genome polyprotein = Genome polyprotein (dengue virus type 2, UniProt P29990); test: flavivirus cap methylation enzyme inhibition – biochemical, confirmation dose response, primary screen (AID 588689); type: functional
fMet-Leu-Phe receptor = fMet-Leu-Phe receptor (Homo sapiens, UniProt P21462); test: formyl peptide receptor binders – dose response (AID 519); type: functional
[1] = target: T1, Corticotropin-releasing factor receptor 2/Corticotropin-releasing factor-binding protein (Homo sapiens, UniProt P24387+Q13324); test: activators of CRF receptor 2 with binding protein – uHTS hits, confirmation (AID 602473); type: functional; settings: read-out: EC50_Mean
T1 sequence (Q13324 whole entry): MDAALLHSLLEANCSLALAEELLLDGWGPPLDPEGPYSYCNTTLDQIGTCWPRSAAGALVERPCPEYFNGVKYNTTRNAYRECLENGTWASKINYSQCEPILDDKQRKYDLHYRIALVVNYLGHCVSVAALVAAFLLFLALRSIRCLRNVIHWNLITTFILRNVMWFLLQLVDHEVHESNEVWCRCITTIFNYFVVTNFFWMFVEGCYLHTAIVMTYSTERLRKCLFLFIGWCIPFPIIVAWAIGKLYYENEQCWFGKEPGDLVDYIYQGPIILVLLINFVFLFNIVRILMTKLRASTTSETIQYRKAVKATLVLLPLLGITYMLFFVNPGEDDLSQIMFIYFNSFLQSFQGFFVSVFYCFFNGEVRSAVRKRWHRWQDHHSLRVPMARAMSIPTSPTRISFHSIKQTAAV
T1 sequence (P24387 whole entry): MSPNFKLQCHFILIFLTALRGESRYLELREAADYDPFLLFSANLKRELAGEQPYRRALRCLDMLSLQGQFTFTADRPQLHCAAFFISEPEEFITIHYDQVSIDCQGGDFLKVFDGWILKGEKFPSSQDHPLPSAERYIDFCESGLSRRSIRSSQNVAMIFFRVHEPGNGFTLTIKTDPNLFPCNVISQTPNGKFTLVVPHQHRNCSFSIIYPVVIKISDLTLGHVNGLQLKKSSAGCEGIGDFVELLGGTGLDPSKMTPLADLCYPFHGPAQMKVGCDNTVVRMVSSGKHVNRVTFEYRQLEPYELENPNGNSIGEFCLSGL

Leucine aminopeptidase = target: T2, Leucine aminopeptidase (Plasmodium falciparum 3D7, UniProt Q8IL11); test: P. falciparum M17LAP inhibitors, primary screen, biochemical, fluorogenic H-Leu-NHMec substrate, 1536-well (AID 1619); type: functional
T2 sequence (Q8IL11 whole entry): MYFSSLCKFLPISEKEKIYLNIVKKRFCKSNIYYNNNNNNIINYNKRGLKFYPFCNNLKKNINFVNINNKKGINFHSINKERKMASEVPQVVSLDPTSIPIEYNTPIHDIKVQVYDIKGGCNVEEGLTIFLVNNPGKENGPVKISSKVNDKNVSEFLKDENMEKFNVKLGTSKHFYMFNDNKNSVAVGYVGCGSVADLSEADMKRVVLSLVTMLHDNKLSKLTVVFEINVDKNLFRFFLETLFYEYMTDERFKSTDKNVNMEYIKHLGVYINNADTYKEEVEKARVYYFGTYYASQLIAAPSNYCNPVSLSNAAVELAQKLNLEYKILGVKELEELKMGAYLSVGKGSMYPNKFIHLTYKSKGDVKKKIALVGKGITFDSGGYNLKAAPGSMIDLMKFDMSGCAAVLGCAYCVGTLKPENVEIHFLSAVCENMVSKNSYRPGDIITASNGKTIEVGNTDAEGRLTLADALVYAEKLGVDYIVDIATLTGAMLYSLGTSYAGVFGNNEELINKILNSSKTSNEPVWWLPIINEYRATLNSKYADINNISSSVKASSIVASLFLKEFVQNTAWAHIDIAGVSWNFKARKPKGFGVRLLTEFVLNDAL

[2] = MITF: Counter assay: A375 proliferation Measured in Cell-Based System Using Plate Reader - 2084-03_Inhibitor_Dose_DryPowder_Activity_Set8.; type: functional; settings: A-375
[3] = inhibitors of TRPM1-promoter reporter in SK-MEL-5 – cell-based, luciferase, dry powder, set 8, MITF inhibitor project, dose response (AID 624430); type: functional
[4] = MITF Orthogonal Assay: SK-MEL-5 CTG Assay Measured in Cell-Based System Using Plate Reader - 2084-02_Inhibitor_Dose_DryPowder_Activity_Set7.; type: functional
[5] = viability of BHK-21 cells – cell-based, secondary screen, cytotoxicity control for flavivirus guanylyltransferase probe project (AID 624078); type: functional
[6] = target: T3, Apoptotic protease-activating factor 1 (Homo sapiens, UniProt O14727); type: functional
T3 sequence (O14727 whole entry): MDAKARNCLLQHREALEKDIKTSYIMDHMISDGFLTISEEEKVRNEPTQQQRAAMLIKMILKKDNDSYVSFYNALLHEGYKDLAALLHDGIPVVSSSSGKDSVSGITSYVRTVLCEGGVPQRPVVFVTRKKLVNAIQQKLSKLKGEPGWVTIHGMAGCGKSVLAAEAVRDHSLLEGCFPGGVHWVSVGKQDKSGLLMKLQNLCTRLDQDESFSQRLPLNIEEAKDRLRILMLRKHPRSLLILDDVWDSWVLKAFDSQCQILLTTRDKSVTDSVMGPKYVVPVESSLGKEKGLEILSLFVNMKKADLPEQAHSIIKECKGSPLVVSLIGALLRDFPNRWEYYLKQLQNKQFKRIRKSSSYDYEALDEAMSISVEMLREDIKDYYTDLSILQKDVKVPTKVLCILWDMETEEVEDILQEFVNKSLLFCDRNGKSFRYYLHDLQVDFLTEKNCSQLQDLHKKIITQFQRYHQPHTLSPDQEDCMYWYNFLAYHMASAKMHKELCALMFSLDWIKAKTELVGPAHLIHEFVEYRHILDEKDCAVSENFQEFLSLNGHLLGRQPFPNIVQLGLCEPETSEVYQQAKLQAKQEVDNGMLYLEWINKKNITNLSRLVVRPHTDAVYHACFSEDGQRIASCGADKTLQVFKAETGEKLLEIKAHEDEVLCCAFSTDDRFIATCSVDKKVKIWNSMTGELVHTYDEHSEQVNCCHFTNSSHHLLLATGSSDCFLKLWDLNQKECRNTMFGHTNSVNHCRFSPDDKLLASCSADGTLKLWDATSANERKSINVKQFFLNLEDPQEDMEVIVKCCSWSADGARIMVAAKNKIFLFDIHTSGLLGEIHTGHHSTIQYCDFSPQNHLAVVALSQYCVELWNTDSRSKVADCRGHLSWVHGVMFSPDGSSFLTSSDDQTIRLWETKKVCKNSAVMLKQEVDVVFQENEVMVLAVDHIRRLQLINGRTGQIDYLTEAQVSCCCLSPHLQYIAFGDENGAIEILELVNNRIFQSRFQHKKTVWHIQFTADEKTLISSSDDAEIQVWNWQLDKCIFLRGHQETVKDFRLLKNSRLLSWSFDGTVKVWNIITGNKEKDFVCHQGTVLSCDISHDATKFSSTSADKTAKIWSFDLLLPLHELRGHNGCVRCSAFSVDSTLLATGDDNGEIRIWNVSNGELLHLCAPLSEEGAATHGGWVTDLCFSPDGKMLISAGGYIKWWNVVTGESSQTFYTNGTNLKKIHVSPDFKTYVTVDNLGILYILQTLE

[7] = NIH-3T3 fibroblast cytotoxicity, dose response, cytotoxicity control, cell-based, fluorescence, Alamar Blue, secondary assay (AID 2327); type: functional;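 also: NIH-3T3 mouse fibroblasts cultured with fluconazole at 8 µg/mL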
Protein RecA = target: T4, Protein RecA (Mycobacterium tuberculosis, UniProt P9WHJ3); test: Fluorescence Cell-Free Homogeneous Dose Retest to Identify Inhibitors of RecA-Intein Splicing Activity. [Related pubchem assays (depositor defined):AID2097, AID2223, AID489010, AID492950]; type: functional
T4 sequence (P9WHJ3 whole entry): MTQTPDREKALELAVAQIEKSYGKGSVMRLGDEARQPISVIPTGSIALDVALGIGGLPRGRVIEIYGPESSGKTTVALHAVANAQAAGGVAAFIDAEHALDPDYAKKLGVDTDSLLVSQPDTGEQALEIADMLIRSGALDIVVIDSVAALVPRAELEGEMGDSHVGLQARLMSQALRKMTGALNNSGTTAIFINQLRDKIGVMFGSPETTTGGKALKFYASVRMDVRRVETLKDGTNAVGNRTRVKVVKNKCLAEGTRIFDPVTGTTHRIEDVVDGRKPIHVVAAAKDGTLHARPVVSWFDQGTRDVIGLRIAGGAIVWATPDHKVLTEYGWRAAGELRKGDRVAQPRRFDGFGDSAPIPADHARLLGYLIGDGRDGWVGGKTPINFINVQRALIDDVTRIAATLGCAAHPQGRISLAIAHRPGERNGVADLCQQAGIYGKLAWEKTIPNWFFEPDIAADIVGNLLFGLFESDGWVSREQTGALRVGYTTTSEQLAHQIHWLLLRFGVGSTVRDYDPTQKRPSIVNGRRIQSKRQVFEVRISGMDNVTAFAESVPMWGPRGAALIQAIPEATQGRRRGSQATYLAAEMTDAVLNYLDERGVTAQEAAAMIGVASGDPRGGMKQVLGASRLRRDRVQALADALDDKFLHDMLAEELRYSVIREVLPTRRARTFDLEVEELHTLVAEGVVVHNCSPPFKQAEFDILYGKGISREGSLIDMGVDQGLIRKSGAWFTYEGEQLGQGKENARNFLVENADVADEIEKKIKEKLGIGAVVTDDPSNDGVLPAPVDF

[8] = target: T5, RNA-binding protein pos-1 (Caenorhabditis elegans, UniProt G5EF15); test: disruptors of C. elegans POS-1 RNA interaction – biochemical, fluorescence polarization, dose response (AID 1964);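 also: purified POS-1 fused to maltose binding protein made in E. coli; potency of compounds blocking POS-1 binding to fluorescent RNA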
T5 sequence (G5EF15 whole entry): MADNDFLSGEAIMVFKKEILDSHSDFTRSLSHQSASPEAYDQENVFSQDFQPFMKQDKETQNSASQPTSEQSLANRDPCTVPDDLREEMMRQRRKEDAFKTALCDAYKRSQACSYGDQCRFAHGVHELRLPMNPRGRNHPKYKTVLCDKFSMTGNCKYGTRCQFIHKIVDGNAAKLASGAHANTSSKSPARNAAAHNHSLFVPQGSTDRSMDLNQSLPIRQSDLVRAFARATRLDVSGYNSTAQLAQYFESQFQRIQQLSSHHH

Caspase-9 = Caspase-9 (Homo sapiens, UniProt P55211); test: inhibitors of purified CASP9 protease – biochemical, fluorescence, plate reader, cherry-picked samples, selectivity assay for caspase-6 inhibitor project, dose response (AID 743293)
Caspase-6 = target: T6, Caspase-6 (Homo sapiens, UniProt P55212); test: inhibition of CASP6 peptide cleavage – biochemical, VEID-R110 fluorescence, cherry-pick, dose response (AID 720632)
T6 sequence (P55212 whole entry): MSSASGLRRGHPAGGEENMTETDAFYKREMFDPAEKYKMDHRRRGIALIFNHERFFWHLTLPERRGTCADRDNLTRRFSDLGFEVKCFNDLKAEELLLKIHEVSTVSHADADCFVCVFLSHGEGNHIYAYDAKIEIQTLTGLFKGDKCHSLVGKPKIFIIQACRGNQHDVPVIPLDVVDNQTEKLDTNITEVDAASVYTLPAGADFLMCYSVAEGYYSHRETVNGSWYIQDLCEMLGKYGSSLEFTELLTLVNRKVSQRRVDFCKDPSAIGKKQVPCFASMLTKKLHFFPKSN

[9] = target: Dual specificity tyrosine-phosphorylation-regulated kinase 1A (Rattus norvegicus, UniProt Q63470); type: biochemical, Homo sapiens
Caspase-7 = Caspase-7 (Homo sapiens, UniProt P55210); test: caspase-7 enzyme inhibition, selectivity check – biochemical, DEVD-R110 fluorescence, cherry-pick, selectivity assay for caspase-6 inhibitor project, dose response (AID 743295); type: functional
[10] = target: T7, Zinc finger protein mex-5 (Caenorhabditis elegans, UniProt Q9XUB2); test: potency of MEX-5 RNA-binding blockers – biochemical, C. elegans, fluorescence polarization, dose response (AID 1960)
T7 sequence (Q9XUB2 whole entry): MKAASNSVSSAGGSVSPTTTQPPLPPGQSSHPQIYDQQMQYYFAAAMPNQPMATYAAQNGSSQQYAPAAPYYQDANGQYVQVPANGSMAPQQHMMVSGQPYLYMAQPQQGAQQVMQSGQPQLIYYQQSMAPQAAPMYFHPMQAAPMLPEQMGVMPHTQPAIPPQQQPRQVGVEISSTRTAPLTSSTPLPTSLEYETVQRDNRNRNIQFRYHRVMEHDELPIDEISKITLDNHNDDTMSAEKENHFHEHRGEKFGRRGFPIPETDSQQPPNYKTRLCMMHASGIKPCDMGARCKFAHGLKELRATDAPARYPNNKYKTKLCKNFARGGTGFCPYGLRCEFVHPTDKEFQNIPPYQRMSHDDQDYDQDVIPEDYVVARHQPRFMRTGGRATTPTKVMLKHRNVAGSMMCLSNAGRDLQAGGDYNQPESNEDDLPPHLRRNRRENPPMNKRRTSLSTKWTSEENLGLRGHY

[11] = fluconazole-exposed Candida albicans growth modulators – fluorescence, retest, confirmation (AID 2467); type: functional, cell-based
[12] = microbe, parasite or virus in culture; type: functional; settings: Mycobacterium tuberculosis
[13] = Luminescence Cell-Based Dose Retest to Confirm Inhibitors of Cancer Stem Cells. [Related pubchem assays (depositor defined):AID2717, AID2721]; type: functional; settings: Homo sapiens
[14] = general cell-killing toxicity readout – plate reader, dry powder samples, cytotoxicity control for PAX8 inhibitor project, dose response (AID 743021); type: functional, cell-based
[15] = toxicity toward HepG2 hepatoma cells – cell-based, dry powder samples, cytotoxicity control, dose response (AID 720568); type: functional

Caspase-7, sequence (P55210 24-198 limits assumed): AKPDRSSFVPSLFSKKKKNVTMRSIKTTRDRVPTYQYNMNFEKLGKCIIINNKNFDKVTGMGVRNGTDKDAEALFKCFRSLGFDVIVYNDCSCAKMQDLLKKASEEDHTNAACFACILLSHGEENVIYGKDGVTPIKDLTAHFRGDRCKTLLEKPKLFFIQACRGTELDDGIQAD
Caspase-7, sequence (P55210 207-303 limits assumed): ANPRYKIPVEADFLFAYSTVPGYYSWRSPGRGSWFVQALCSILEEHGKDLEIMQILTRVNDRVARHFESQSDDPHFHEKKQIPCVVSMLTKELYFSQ
fMet-Leu-Phe receptor, sequence (P21462 whole entry): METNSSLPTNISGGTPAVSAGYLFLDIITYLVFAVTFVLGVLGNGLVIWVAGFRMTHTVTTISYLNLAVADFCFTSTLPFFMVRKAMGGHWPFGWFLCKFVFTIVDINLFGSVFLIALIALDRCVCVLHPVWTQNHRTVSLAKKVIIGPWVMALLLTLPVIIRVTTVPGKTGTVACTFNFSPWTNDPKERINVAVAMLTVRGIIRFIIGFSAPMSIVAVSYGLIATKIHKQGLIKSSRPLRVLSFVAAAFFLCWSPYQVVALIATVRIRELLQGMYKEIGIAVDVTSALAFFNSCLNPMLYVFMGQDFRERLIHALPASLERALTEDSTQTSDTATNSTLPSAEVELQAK
Genome polyprotein, sequence (P29990 2492-3391 limits assumed): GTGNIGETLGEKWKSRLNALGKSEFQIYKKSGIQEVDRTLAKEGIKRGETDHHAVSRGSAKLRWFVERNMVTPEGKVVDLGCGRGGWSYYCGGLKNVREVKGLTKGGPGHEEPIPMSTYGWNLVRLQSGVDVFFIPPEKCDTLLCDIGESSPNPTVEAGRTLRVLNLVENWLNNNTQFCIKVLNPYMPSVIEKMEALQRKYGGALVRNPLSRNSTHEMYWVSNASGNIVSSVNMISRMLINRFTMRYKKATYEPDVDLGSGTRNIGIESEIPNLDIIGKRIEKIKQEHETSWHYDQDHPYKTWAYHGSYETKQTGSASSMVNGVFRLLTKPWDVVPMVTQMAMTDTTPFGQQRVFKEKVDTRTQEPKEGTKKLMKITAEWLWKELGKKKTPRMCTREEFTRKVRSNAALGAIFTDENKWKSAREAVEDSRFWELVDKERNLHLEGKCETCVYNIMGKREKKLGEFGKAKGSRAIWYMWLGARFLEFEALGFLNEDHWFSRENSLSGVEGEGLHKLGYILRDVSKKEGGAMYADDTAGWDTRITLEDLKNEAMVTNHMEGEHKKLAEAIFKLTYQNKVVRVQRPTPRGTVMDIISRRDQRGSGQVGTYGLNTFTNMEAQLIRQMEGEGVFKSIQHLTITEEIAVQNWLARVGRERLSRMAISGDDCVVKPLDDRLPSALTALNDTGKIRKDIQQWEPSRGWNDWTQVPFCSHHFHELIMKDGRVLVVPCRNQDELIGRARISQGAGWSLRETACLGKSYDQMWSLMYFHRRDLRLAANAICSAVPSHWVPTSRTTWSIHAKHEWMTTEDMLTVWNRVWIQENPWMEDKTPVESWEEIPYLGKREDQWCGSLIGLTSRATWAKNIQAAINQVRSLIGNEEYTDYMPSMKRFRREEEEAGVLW
Caspase-9, sequence (P55211 1-315 limits assumed): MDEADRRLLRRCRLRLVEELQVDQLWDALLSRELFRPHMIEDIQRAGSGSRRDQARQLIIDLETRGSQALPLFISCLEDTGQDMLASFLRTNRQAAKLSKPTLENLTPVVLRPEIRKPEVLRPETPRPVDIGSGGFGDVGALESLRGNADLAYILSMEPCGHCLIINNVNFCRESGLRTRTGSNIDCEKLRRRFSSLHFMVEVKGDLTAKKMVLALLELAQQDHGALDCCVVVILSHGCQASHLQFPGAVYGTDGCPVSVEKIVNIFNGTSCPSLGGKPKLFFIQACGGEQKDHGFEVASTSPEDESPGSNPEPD
Caspase-9, sequence (P55211 331-416 limits assumed): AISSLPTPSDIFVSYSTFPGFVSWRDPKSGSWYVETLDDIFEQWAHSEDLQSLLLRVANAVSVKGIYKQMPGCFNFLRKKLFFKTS

Cc1sc(NC(=O)C2CCCCC2C(=O)O)c(C(N)=O)c1-c1ccc(C(C)(C)C)cc1 (configuration not stated)
IC50 (Genome polyprotein): 60.1 µM (active) | Ki (fMet-Leu-Phe receptor): 41.2 µM (inactive) | EC50 [1]: 5.33 µM (active) | IC50 (Leucine aminopeptidase): 11.1 µM (active)

O=C1C=C(Nc2ccc(Cl)c(C(F)(F)F)c2)C(=O)c2ccccc21
AC50 [2]: > 70 µM (inactive) | AC50 [3]: > 70 µM (inactive) | AC50 [4]: 0.754 µM (active)

O=S(=O)(Nc1cc(Sc2nc[nH]n2)c(O)c2ccccc12)c1ccc(F)cc1
CC50 [5]: 14.3 µM (active)

CN1CCc2cc3c(c4c2C1Cc1ccccc1-4)OCO3 (configuration not stated) [ROEMERINE]
IC50 [6]: 10.2 µM (active) | EC50 [7]: > 150 µM (inactive) | EC50 (Protein RecA): 0.0797 µM (active) | EC50 [8]: 16.8 µM (active) | AC50 (Caspase-9): > 70 µM (inactive) | AC50 (Caspase-6): 3.68 µM (active) | AC50 [9]: 2.54 µM (active) | AC50 (Caspase-7): 1.51 µM (active) | EC50 [10]: 21.5 µM (inconclusive) | EC50 [11]: > 38 µM (not active) | CC50 [12]: > 40 µM (active)

Nc1nc(=S)c2ncn([C@@H]3O[C@H](CO)[C@@H](O)[C@H]3O)c2[nH]1 [THIOGUANOSINE]
AC50 [13]: 0.301 µM (active) | AC50 [14]: 2.21 µM (active) | AC50 [15]: 6.38 µM (active)
